Each structure is given as a SMILES string.

`CCC(CC)Oc1cc(C)nc2c1c(Cl)nc(=O)n2-c1c(C)cc(C)cc1C` [Example 17, 4-Chloro-5-(1-ethyl-propoxy)-7-methyl-1-(2,4,6-trimethyl-phenyl)-1H-pyrido[2,3-d]pyrimidin-2-one]: the melting point fell in the range of 125 to 127 °C. `CCC(CC)Oc1cc(C)nc2c1c(=O)[nH]c(=O)n2-c1c(C)cc(C)cc1C` [Example 18, 5-(1-Ethyl-propoxy)-7-methyl-1-(2,4,6-trimethyl-phenyl)-1H-pyrido[2,3-d]pyrimidine-2,4-dione] showed a melting point of 105 to 107 °C. To `CCC(CC)Nc1cc(C)nc2c1CCC(=O)N2c1c(C)cc(C)cc1C` [Example 12, 5-(1-Ethyl-propylamino)-7-methyl-1-(2,4,6-trimethyl-phenyl)-3,4-dihydro-1H-[1,8]naphthyridin-2-one] belongs 124 to 126 °C.

The record behind these values is patent US6875769B2, “Substituted6,6-hetero-bicyclicderivatives” (Pfizer Inc., priority 1997, dated 2005).
